Measured values: PubChem BioAssay (NCI)
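48-hour exposure; five concentrations; linearly interpolated endpoints. GI50 marks 50% less growth. TGI: concentration producing complete growth inhibition.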

What was measured:
Assay in all cases: DTP human tumour cell line panel, 48 h
BT-549 breast = system: BT-549 breast
SNB-75 CNS = system: SNB-75 CNS
T-47D breast = system: T-47D breast
OVCAR-3 ovarian = system: OVCAR-3 ovarian
SK-MEL-5 melanoma = system: SK-MEL-5 melanoma
SF-295 CNS = system: SF-295 CNS
MDA-MB-231 breast = system: MDA-MB-231 breast
MDA-MB-435 = system: MDA-MB-435
K-562 leukemia = system: K-562 leukemia
A549 NSCLC = system: A549 NSCLC
NCI/ADR-RES ovarian = system: NCI/ADR-RES ovarian
CAKI-1 renal = system: CAKI-1 renal
SK-MEL-2 melanoma = system: SK-MEL-2 melanoma
HCC-2998 colon = system: HCC-2998 colon
HCT-116 colon = system: HCT-116 colon
NCI-H460 lung = system: NCI-H460 lung
IGROV1 ovarian = system: IGROV1 ovarian
KM12 colon = system: KM12 colon
TK-10 renal = system: TK-10 renal
M14 melanoma = system: M14 melanoma
PC-3 prostate = system: PC-3 prostate
HT29 colon = system: HT29 colon
EKVX NSCLC = system: EKVX NSCLC
U251 CNS = system: U251 CNS
MOLT-4 leukemia = system: MOLT-4 leukemia
NCI-H522 lung = system: NCI-H522 lung
A498 renal = system: A498 renal
RXF 393 renal = system: RXF 393 renal
SK-MEL-28 melanoma = system: SK-MEL-28 melanoma
HL-60(TB) leukemia = system: HL-60(TB) leukemia
SR leukemia = system: SR leukemia
SW-620 colon = system: SW-620 colon
OVCAR-4 ovarian = system: OVCAR-4 ovarian
COLO 205 colon = system: COLO 205 colon
SF-539 CNS = system: SF-539 CNS
ACHN renal = system: ACHN renal
OVCAR-8 ovarian = system: OVCAR-8 ovarian
RPMI-8226 leukemia = system: RPMI-8226 leukemia
SK-OV-3 ovarian = system: SK-OV-3 ovarian
HS 578T breast = system: HS 578T breast
UACC-257 melanoma = system: UACC-257 melanoma
DU-145 prostate = system: DU-145 prostate
HOP-62 NSCLC = system: HOP-62 NSCLC
NCI-H23 lung = system: NCI-H23 lung
NCI-H226 lung = system: NCI-H226 lung
HOP-92 NSCLC = system: HOP-92 NSCLC
SNB-19 CNS = system: SNB-19 CNS
HCT-15 colon = system: HCT-15 colon
LOX IMVI melanoma = system: LOX IMVI melanoma
SF-268 CNS = system: SF-268 CNS
UACC-62 melanoma = system: UACC-62 melanoma
MALME-3M melanoma = system: MALME-3M melanoma
OVCAR-5 ovarian = system: OVCAR-5 ovarian
SN12C renal = system: SN12C renal

O=C(Nc1ccc(Cl)cc1)Nc1ccc(Oc2nncc3ccccc23)cc1
GI50 (BT-549 breast): 2080 nM
TGI (BT-549 breast): 7430 nM
GI50 (SNB-75 CNS): 451 nM
TGI (SNB-75 CNS): 1950 nM
GI50 (T-47D breast): 245 nM
TGI (T-47D breast): 768 nM
GI50 (OVCAR-3 ovarian): 354 nM
TGI (OVCAR-3 ovarian): 1150 nM
GI50 (SK-MEL-5 melanoma): 1200 nM
TGI (SK-MEL-5 melanoma): 2810 nM
GI50 (SF-295 CNS): 2540 nM
TGI (SF-295 CNS): 6270 nM
GI50 (MDA-MB-231 breast): 399 nM
TGI (MDA-MB-231 breast): 3680 nM
GI50 (MDA-MB-435): 290 nM
TGI (MDA-MB-435): 1070 nM
GI50 (K-562 leukemia): 376 nM
TGI (K-562 leukemia): 10900 nM
GI50 (A549 NSCLC): 2810 nM
TGI (A549 NSCLC): 11500 nM
GI50 (NCI/ADR-RES ovarian): 2630 nM
TGI (NCI/ADR-RES ovarian): > 100000 nM
GI50 (CAKI-1 renal): 2720 nM
TGI (CAKI-1 renal): 8700 nM
GI50 (SK-MEL-2 melanoma): 1570 nM
TGI (SK-MEL-2 melanoma): 3650 nM
GI50 (HCC-2998 colon): 1840 nM
TGI (HCC-2998 colon): 3480 nM
GI50 (HCT-116 colon): 326 nM
TGI (HCT-116 colon): 1200 nM
GI50 (NCI-H460 lung): 2790 nM
TGI (NCI-H460 lung): 8320 nM
GI50 (IGROV1 ovarian): 1160 nM
TGI (IGROV1 ovarian): 5000 nM
GI50 (KM12 colon): 888 nM
TGI (KM12 colon): 2650 nM
GI50 (TK-10 renal): 2120 nM
TGI (TK-10 renal): 4280 nM
GI50 (M14 melanoma): 1120 nM
TGI (M14 melanoma): 3160 nM
GI50 (PC-3 prostate): 1640 nM
TGI (PC-3 prostate): 6080 nM
GI50 (HT29 colon): 465 nM
TGI (HT29 colon): 2390 nM
GI50 (EKVX NSCLC): 1610 nM
TGI (EKVX NSCLC): 4500 nM
GI50 (U251 CNS): 1010 nM
TGI (U251 CNS): 2380 nM
GI50 (MOLT-4 leukemia): 376 nM
TGI (MOLT-4 leukemia): > 100000 nM
GI50 (NCI-H522 lung): 193 nM
TGI (NCI-H522 lung): 419 nM
GI50 (A498 renal): 1500 nM
TGI (A498 renal): 3060 nM
GI50 (RXF 393 renal): 312 nM
TGI (RXF 393 renal): 1050 nM
GI50 (SK-MEL-28 melanoma): 422 nM
TGI (SK-MEL-28 melanoma): 1650 nM
GI50 (HL-60(TB) leukemia): 1080 nM
TGI (HL-60(TB) leukemia): 13400 nM
GI50 (SR leukemia): 401 nM
TGI (SR leukemia): > 100000 nM
GI50 (SW-620 colon): 348 nM
TGI (SW-620 colon): 1600 nM
GI50 (OVCAR-4 ovarian): 753 nM
TGI (OVCAR-4 ovarian): 3490 nM
GI50 (COLO 205 colon): 1180 nM
TGI (COLO 205 colon): 2920 nM
GI50 (SF-539 CNS): 280 nM
TGI (SF-539 CNS): 1130 nM
GI50 (ACHN renal): 1050 nM
TGI (ACHN renal): 2330 nM
GI50 (OVCAR-8 ovarian): 1100 nM
TGI (OVCAR-8 ovarian): 13600 nM
GI50 (RPMI-8226 leukemia): 488 nM
TGI (RPMI-8226 leukemia): 4580 nM
GI50 (SK-OV-3 ovarian): 1740 nM
TGI (SK-OV-3 ovarian): 5480 nM
GI50 (HS 578T breast): 696 nM
TGI (HS 578T breast): 47000 nM
GI50 (UACC-257 melanoma): 1500 nM
TGI (UACC-257 melanoma): 4040 nM
GI50 (DU-145 prostate): 736 nM
TGI (DU-145 prostate): 2080 nM
GI50 (HOP-62 NSCLC): 1090 nM
TGI (HOP-62 NSCLC): 4320 nM
GI50 (NCI-H23 lung): 751 nM
TGI (NCI-H23 lung): 2870 nM
GI50 (NCI-H226 lung): 623 nM
TGI (NCI-H226 lung): 5420 nM
GI50 (HOP-92 NSCLC): 1640 nM
TGI (HOP-92 NSCLC): 4380 nM
GI50 (SNB-19 CNS): 1740 nM
TGI (SNB-19 CNS): 4790 nM
GI50 (HCT-15 colon): 961 nM
TGI (HCT-15 colon): 3080 nM
GI50 (LOX IMVI melanoma): 166 nM
TGI (LOX IMVI melanoma): 455 nM
GI50 (SF-268 CNS): 1350 nM
TGI (SF-268 CNS): 7210 nM
GI50 (UACC-62 melanoma): 1080 nM
TGI (UACC-62 melanoma): 3460 nM
GI50 (MALME-3M melanoma): 448 nM
TGI (MALME-3M melanoma): 2310 nM
GI50 (OVCAR-5 ovarian): 1890 nM
TGI (OVCAR-5 ovarian): 4470 nM
GI50 (SN12C renal): 1030 nM
TGI (SN12C renal): 3580 nM
